Measured values taken from patent publication US6967219B2, “Reversing or preventing premature vascular senescence” (Cornell Research Foundation, Inc., priority 2001, dated 2005).

How the values were obtained:
[1] = test system: Human umbilical vein endothelial cells (HUVEC); test: SA β-galactosidase staining of HUVEC plated on glycated collagen (premature senescence); type: cell-based; conditions: for reduction/reversal of premature senescence across dilutions of glycated collagen: HUVEC on glycated collagen at different dilutions/concentrations of glycated matrix
Experimental: Detection of SA-β-galactosidase was carried out utilizing the histochemical staining method of Dimitri et al, Proc. Natl. Acad. Sci. USA 92, 9363-9367 as modified by Van der Loo, B., et al, Exp. Cell Res. 241, 309-315 (1998). SA-β-galactosidase is a known senescence marker. […] This phenomenon occurred in 12 week and 21 week-old diabetic rats, but was undetectable in age-matched Zucker lean rats (0/24 branches examined).
Human umbilical vein endothelial cells (HUVEC) after four passages were plated on glycated collagen with the addition of 0.1 mM hydroxy-L-arginine vis-a-vis the same concentration of L-arginine. Application was made on day 1, 2 hours after plating. The extent of SA β-galactosidase staining was evaluated on days 3 and 5 of culture on a glycated or native matrix. In addition, to study the reversibility process, HUVEC were plated on glycated collagen for three days (time sufficient to induce premature senescence), and hydroxy-L-arginine was added every 12 hours, starting on day 3, and the cells were examined on day 5.

[2] = test system: patient with end stage renal disease; test: Example I: patient with end stage renal disease on chronic hemodialysis treated with hydroxy-L-arginine; type: in vivo, human; conditions: 1-20 mg/kg thrice/day, 6 months later
Source text: (In some cases, renal biopsy will be performed, which will directly disclose the deposition of AGE in the renal parenchyma and increased proportion of SA-beta-galactosidase-stained endothelial cells). […] In addition, the patient has their arterio-veinous fistula revised 3 times due to clotting and stenosis. The patient is also complaining of a non-healing foot ulcer and intermittent claudication, both signs of peripheral vascular disease.

[3] = test system: patient with type I (alternatively type 2) diabetes mellitus; test: Example II: poorly controlled diabetes mellitus patient treated with hydroxy-L-arginine; type: in vivo, human; conditions: 1-20 mg/kg thrice/day, 6 months later
Experimental: A patient with type I (alternatively, a patient with type 2) diabetes mellitus, past medical history of myocardial infarction, peripheral vascular disease, hypertension, proteinuria and non-healing foot ulcer, is receiving insulin, but patient is poorly compliant. Patient's fasting blood glucose level is 200 mg/dl. Additional laboratory findings include elevated Hgb Alc level (8.5%) as well as one of the following levels of AGE: elevated level of pentosidine (2.3 pmol/mg) or elevated level of Amadori serum albumin (41 U/ml). (In some cases, renal biopsy will be performed, which will directly disclose the deposition of AGE in the renal parenchyma and increased proportion of SA-beta-galactosidase-stained endothelial cells).

[4] = test system: saphenous vein endothelial cells seeded on artificial vascular graft; test: Example VI: artificial vascular graft seeded with endothelial cells cultured with hydroxy-L-arginine, implanted; type: in vivo, human; conditions: cells cultured with 10-100 μg/ml at 35° C. for 2-3 weeks
Experimental: A person with peripheral vascular disease is undergoing an elective femoral-to-popliteal bypass surgery utilizing an artificial vascular graft. A saphenous vein is obtained to harvest endothelial cells for expansion and seed on the surface of a graft. Expanded endothelial cells are cultured in the medium containing hydroxy-L-arginine, 10-100 μg/ml at 35° C. for 2-3 weeks, and cells are seeded on the graft in the continuous presence of the same concentration of hydroxy-L-arginine. Thus prepared, the vascular graft is implanted.

[5] = test system: saphenous vein endothelial cells seeded on artificial valve; test: Example V: artificial heart valve seeded with endothelial cells cultured with hydroxy-L-arginine, implanted; type: in vivo, human; conditions: cells cultured with 10-100 μg/ml at 35° C. for 2-3 weeks
Experimental: A person with a defective heart valve is being prepared for a surgical replacement of the valve with a prosthetic device. A saphenous vein is obtained to harvest endothelial cells for expansion and seeding on the surface of a artificial valve. Expanded endothelial cells are cultured in the medium containing hydroxy-L-arginine, 10-100 μg/ml at 35° C. for 2-3 weeks and cells are seeded on the valve in the continuous presence of the same concentration of hydroxy-L-arginine. Thus prepared, the artificial valve is implanted.

[6] = test system: patient diagnosed with Alzheimer's disease; test: Example III: patient with Alzheimer's disease treated with hydroxy-L-arginine; type: in vivo, human; conditions: 1-20 mg/kg thrice/day alone or with antioxidant agents and vitamins; two years later
Experimental: A person with no known medical conditions has been experiencing a sustained loss of short-term memory for the past three years. Their CBC, electrolytes and other plasma parameters of metabolic profile are within normal range. There is no vitamin deficiency, no abnormalities in liver function tests, and no previous history of cerebro-vascular accidents. […] Based on these findings the patient is diagnosed with Alzheimer's disease. Therapy with hydroxy-L-arginine is initiated at doses 1-20 mg/kg thrice/day alone or in combination with antioxidant agents and vitamins (e.g., ascorbate, alpha-tocopherol, vitamin B6, vitamin B12, folate (folic acid), carotenoids, coenzyme Q10, phytoestrogens (including isoflavonoids), selenium, butylated hydroxytoluene (BHT), butylated hydroxyanisole (BHA) and n-3 polyunsaturated fatty acids (PUFA)).

[7] = test system: patients of Examples I, II and III; test: Example IV: other hydroxyguanidines substituted for hydroxy-L-arginine in Examples I, II and III; type: in vivo, human; conditions: same dosage as in Examples I

Compound | reduction/reversal of premature senescence across dilutions of glycated collagen [1] | coronary symptoms [2] | foot ulcer [2] | pentosidine level after treatment ([2]; baseline 2.5 pmol/mg) [pmol/mg] | Amadori serum albumin level after treatment ([2]; baseline 40 U/ml) [U/ml] | blood pressure ([2]; baseline 175/105 mmHg) | blood pressure [3] | coronary angiogram [3] | coronary symptoms [3] | foot ulcer [3] | pentosidine level after treatment ([3]; baseline 2.3 pmol/mg) [pmol/mg] | Amadori serum albumin level after treatment ([3]; baseline 41 U/ml) [U/ml] | development of premature senescence (SA β-galactosidase staining) ([1]; HUVEC grown on glycated collagen, 0.1 mM added to culture medium on day 1, 2 hours after plating, evaluated days 3 and 5) | thrombotic and atheroembolic complications [4] | thrombotic and atheroembolic complications [5] | symptoms related to the memory loss [6] | results when substituted for hydroxy-L-arginine at the same dosage [7]
N=C(N)NCCC[C@H](N)C(=O)O [L-arginine, reference compound] | failed to reverse premature senescence at higher concentrations of glycated matrix |  |  |  |  |  |  |  |  |  |  |  |  |  |  |  | 
N=C(NO)NCCC[C@H](N)C(=O)O [hydroxy-L-arginine, N^ω-hydroxy-L-arginine] | able to reduce premature senescence at all dilutions of glycated collagen | significant subjective improvement | healing of foot ulcer | 1.7 | 30 | normalization of blood pressure | normalization of blood pressure | either no further worsening of stenotic lesions or some degree of improvement | significant subjective improvement | healing of foot ulcer | 1.7 | 30 | completely abolished the development of premature senescence | less thrombotic and atheroembolic complications | less thrombotic and atheroembolic complications | no deterioration and a partial improvement | 
N=C(N)NO [hydroxyguanidine, Hydroxyguanidine] |  |  |  |  |  |  |  |  |  |  |  |  |  |  |  |  | Positive results similar to those obtained in Examples I, II and III
